From patent US20250073244A1, “CRYSTALLINE FORMS OF PENTAAZA MACROCYCLIC RING COMPLEX” (Galera Labs, LLC, priority 2023, published 2025) come the findings set out here.

A short description of the data set: Water activity study at 25° C. (acetone/water). Particulars: Acetone & water, protected by N2, 5 days. The class given is physicochemical. Here is the method:
Water activity experiments were conducted at 25° C. in 10 different water activities with 1 set of organic solvent/water mixtures (acetone/water) to determine critical water activity between anhydrate and hydrate.

Each structure is given as a SMILES string.

`CCC(=O)[O][Mn][O]C(=O)CC.c1cc2nc(c1)CN[C@H]1CCCC[C@@H]1NCCN[C@H]1CCCC[C@@H]1NC2` [API]: the Comments entry is, setting by setting: (a.w. 0) “API degradation”; (a.w. 0.703) “Clear solution”; (a.w. 0.803) “Clear solution”; (a.w. 0.901) “Clear solution”. Moreover, the purity is recorded as 97.34% (a.w. 0); “Purity 98.27%” (a.w. 0.103); “Purity 99.18%” (a.w. 0.206); “Purity 99.77%” (a.w. 0.301); “Purity 99.49%” (a.w. 0.400); “Purity 99.33%” (a.w. 0.501). In addition, under “a.w. 0.603”, the purity result is “Purity 99.19%”. For the same compound, the XRPD entry was “Pattern A” (a.w. 0.103); “Pattern A” (a.w. 0.206); “Pattern D” (a.w. 0.301); “Pattern D” (a.w. 0.400); “Pattern D” (a.w. 0.501); “Pattern D” (a.w. 0.603).
